EC50 data for 23 molecules are collected here from patent US9493396B2, “Substituted naphthalene compounds as calcium sensing receptor modulators” (LUPIN ATLANTIS HOLDINGS SA, priority 2013, dated 2016).

Each structure is given as a SMILES string. Where a name gives a salt, the structure may show the parent alone.

The experiment concerns the target T1, Calcium sensing receptor (hCaSR) (Homo sapiens, UniProt P41180).
T1 construct: expressed in transfected cells; host or cells: HEK293 (stably transfected)
T1 sequence (P41180 20-1078): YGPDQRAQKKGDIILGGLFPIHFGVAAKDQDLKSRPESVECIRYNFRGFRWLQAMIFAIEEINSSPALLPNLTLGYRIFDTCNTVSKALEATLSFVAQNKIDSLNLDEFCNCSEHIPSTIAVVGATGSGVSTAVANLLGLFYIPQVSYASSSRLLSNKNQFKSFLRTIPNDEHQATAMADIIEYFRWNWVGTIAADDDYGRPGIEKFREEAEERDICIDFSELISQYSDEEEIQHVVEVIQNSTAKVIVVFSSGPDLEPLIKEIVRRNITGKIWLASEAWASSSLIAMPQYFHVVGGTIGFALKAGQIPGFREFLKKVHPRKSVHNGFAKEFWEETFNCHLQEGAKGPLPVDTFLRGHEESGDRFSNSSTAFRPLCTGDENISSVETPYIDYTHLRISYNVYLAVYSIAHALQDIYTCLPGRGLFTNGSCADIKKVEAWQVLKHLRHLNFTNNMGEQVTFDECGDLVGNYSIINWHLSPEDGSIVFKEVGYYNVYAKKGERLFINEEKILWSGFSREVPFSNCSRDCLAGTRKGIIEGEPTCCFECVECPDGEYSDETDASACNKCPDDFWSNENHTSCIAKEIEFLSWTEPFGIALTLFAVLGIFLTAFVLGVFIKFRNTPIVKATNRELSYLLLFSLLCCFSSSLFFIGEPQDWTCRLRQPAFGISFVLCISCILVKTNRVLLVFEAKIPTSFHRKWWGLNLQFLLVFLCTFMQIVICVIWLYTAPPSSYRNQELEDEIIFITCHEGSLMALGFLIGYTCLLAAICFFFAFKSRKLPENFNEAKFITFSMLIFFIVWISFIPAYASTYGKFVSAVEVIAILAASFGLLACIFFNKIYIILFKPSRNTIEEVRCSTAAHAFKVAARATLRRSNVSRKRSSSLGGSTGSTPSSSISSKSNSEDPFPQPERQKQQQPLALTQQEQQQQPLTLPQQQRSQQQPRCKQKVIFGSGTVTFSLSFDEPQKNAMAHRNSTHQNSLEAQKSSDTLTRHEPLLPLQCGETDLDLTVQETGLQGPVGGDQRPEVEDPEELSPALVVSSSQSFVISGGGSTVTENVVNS
The experiment can be described thus: In-vitro assay of calcimimetics through modulation of calcium sensing receptor (intracellular calcium increase, FLIPR). It is filed as cell-based. The note with it: stably transfected HEK293 cells expressing hCaSR; Fluo4NW dye; 0.3 mM CaCl2; 8-point assay; read-out: EC50 in range. The method, then: In-Vitro Assay Method of Calcimimetics Through Modulation of Calcium Sensing Receptor (CaSR): The ability of the compounds to modulate Calcium sensing receptor is determined by measuring an increase in intracellular calcium [Ca^2+]i. Stably transfected HEK293 cells expressing hCaSR_pTriEx-3 hygro vector are developed. Cells are grown overnight on a 96-well plate to 80% confluency in Ham's F12 containing 20% FBS at 37° C., 5% CO2. Subsequently, cells are washed extensively with 20 mM HEPES buffer containing 126 mM […], 1 mM MgCl2 and 4 mM KCl to remove serum components that might interfere with the assay. Cells are loaded with calcium sensing Fluo4NW dye in HEPES base buffer containing 0.1% BSA and 1 mg/ml glucose for 30 minutes to measure changes in intracellular calcium. The activities of the compounds are measured in FLIPR using 0.3 mM CaCl2 in 20 mM HEPES base buffer. The effectiveness of the compound to modulate receptor activity is determined by calculating the EC50 responses for that compound in an 8-point assay and plotted using GraphPad Prism 5.
Background: Calcium assays in cells follow changes in intracellular calcium, usually with a dye or a luminescent sensor.
In general, EC50 refers to the concentration that produces a half-maximal response. For `Cc1ccc(-c2cc(C(C)N[C@H](C)c3cccc(Cl)c3)cc3ccccc23)cc1C(=O)O` (stereo partly drawn) [Example 117, 5-(3-(1-(((R)-1-(3-Chlorophenyl)ethyl)amino)ethyl)naphthalen-1-yl)-2-methylbenzoic acid hydrochloride], the EC50 is 0.05 to 0.4 µM.

`COc1cccc([C@@H](C)NC(C)c2cc(-c3ccc(C(F)(F)F)cc3)c3ccccc3c2)c1` (stereo partly drawn) [Example 6, (R)-1-(3-Methoxyphenyl)-N-(1-(4-(4-(trifluoromethyl)phenyl)naphthalen-2-yl)ethyl)ethanamine hydrochloride]: the EC50 was less than 0.02 µM. Turning to `COc1cccc([C@@H](C)NC(C)c2cc(-c3ccc(Cl)c(C(=O)O)c3)c3ccccc3c2)c1` (stereo partly drawn) [Example 133, 2-Chloro-5-(3-(1-(((R)-1-(3-methoxyphenyl)ethyl)amino)ethyl)naphthalen-1-yl)benzoic acid hydrochloride], the EC50 is less than 0.02 µM. Next, `CC(N[C@H](C)c1cccc(Cl)c1)c1cc(-c2ccc(C(F)(F)F)c(CCC(=O)O)c2)c2ccccc2c1` (stereo partly drawn) [Example 146, 3-(5-(3-(1-(((R)-1-(3-Chlorophenyl)ethyl)amino)ethyl)naphthalen-1-yl)-2-(trifluoromethyl)phenyl)propanoic acid hydrochloride]: 0.05 to 0.4 µM. The figure for `CC(N[C@H](C)c1cccc(Cl)c1)c1cc(-c2ccc(F)c(C(=O)O)c2)c2ccccc2c1` (stereo partly drawn) [Example 127, 5-(3-(1-(((R)-1-(3-Chlorophenyl)ethyl)amino)ethyl)naphthalen-1-yl)-2-fluorobenzoic acid hydrochloride] is 0.05 to 0.4 µM. The figure for `CCC(N[C@H](C)c1cccc(Cl)c1)c1cc(-c2ccc(F)c(CCC(=O)O)c2)c2ccccc2c1` (stereo partly drawn) [Example 152, 3-(5-(3-(1-(((R)-1-(3-Chlorophenyl)ethyl)amino)propyl)naphthalen-1-yl)-2-fluorophenyl)propanoic acid hydrochloride] is 0.05 to 0.4 µM; for `COC(=O)c1cc(-c2cc(CN[C@H](C)c3cccc(OC)c3)cc3ccccc23)ccc1C` [Example 155, (R)-Methyl 5-(3-(((1-(3-methoxyphenyl)ethyl)amino)methyl)naphthalen-1-yl)-2-methylbenzoate hydrochloride] it is less than 0.02 µM. In the case of `COc1cccc([C@@H](C)NC(C)c2cc(-c3ccc(OC(F)(F)F)cc3)c3ccccc3c2)c1` (stereo partly drawn) [Example 19, (1R)-1-(3-Methoxyphenyl)-N-(1-(4-(4-(trifluoromethoxy)phenyl)naphthalen-2-yl)ethyl)ethanamine hydrochloride], the EC50 is less than 0.02 µM. The figure for `C[C@@H](NCc1cc(-c2ccc(C(F)(F)F)cc2)c2ccccc2c1)c1cccc2ccccc12` [Example 1, (R)-1-(Naphthalen-1-yl)-N-((4-(4-(trifluoromethyl)phenyl)naphthalen-2-yl)methyl)ethanamine hydrochloride] is less than 0.02 µM; for `CCOc1cccc([C@@H](C)NC(CC)c2cc(-c3ccc(F)c(CCC(=O)O)c3)c3ccccc3c2)c1` (stereo partly drawn) [Example 141, 3-(5-(3-(1-(((R)-1-(3-Ethoxyphenyl)ethyl)amino)propyl)naphthalen-1-yl)-2-fluorophenyl) propanoic acid hydrochloride] it is 0.02 to 0.05 µM. Next, `CCOc1cccc([C@@H](C)NC(C)c2cc(-c3ccc(C)c(CCC(=O)OC(C)C)c3)c3ccccc3c2)c1` (stereo partly drawn) [Example 154, Isopropyl 3-(5-(3-(1-(((R)-1-(3-ethoxyphenyl)ethyl)amino)ethyl)naphthalen-1-yl)-2-methylphenyl) propanoate hydrochloride]: 0.05 to 0.4 µM; `COc1cccc([C@@H](C)NCc2cc(-c3cccc(C(=O)O)c3)c3ccccc3c2)c1` [Example 108, (R)-3-(3-(((1-(3-Methoxyphenyl)ethyl)amino)methyl)naphthalen-1-yl)benzoic acid hydrochloride]: less than 0.02 µM.

For `COc1cccc([C@@H](C)NC(C)c2cc(-c3ccc(OC)c(CCC(=O)O)c3)c3ccccc3c2)c1` (stereo partly drawn) [Example 131, 3-(2-Methoxy-5-(3-(1-(((R)-1-(3-methoxyphenyl)ethyl)amino)ethyl)naphthalen-1-yl)phenyl) propanoic acid hydrochloride], the concentration for a half-maximal effect (EC50) was 0.02 to 0.05 µM. The figure for `COc1cccc([C@@H](C)NC(C)c2cc(-c3ccc(C(=O)O)c(C(F)(F)F)c3)c3ccccc3c2)c1` (stereo partly drawn) [Example 124, 4-(3-(1-(((R)-1-(3-Methoxyphenyl)ethyl)amino)ethyl)naphthalen-1-yl)-2-(trifluoromethyl) benzoic acid hydrochloride] is 0.02 to 0.05 µM. The figure for `COc1cccc([C@@H](C)NC(C)c2cc(-c3ccc(CCC(=O)O)c(F)c3)c3ccccc3c2)c1` (stereo partly drawn) [Example 136, 3-(2-Fluoro-4-(3-(1-(((R)-1-(3-methoxyphenyl)ethyl)amino)ethyl)naphthalen-1-yl)phenyl) propanoic acid hydrochloride] is 0.02 to 0.05 µM.

As to `COc1cccc([C@@H](C)NC(C)c2cc(-c3cc(C)cc(C(=O)O)c3)c3ccccc3c2)c1` (stereo partly drawn) [Example 125, 3-(3-(1-(((R)-1-(3-Methoxyphenyl)ethyl)amino)ethyl)naphthalen-1-yl)-5-methylbenzoic acid hydrochloride], the half-maximal effective concentration (EC50) lay within 0.05 to 0.4 µM.

In the case of `COc1cccc([C@@H](C)NC(C)c2cc(-c3ccc(C(=O)O)c(C)c3)c3ccccc3c2)c1` (stereo partly drawn) [Example 130, 4-(3-(1-(((R)-1-(3-Methoxyphenyl)ethyl)amino)ethyl)naphthalen-1-yl)-2-methylbenzoic acid hydrochloride], the EC50 lay within 0.05 to 0.4 µM. With `COc1cc([C@@H](C)NCc2cc(-c3cccc(C(F)(F)F)c3)c3ccccc3c2)ccc1F` [Example 4, (R)-1-(4-Fluoro-3-methoxyphenyl)-N-((4-(3-(trifluoromethyl)phenyl)naphthalen-2-yl)methyl)ethanamine hydrochloride], the EC50 fell in the range of 0.02 to 0.05 µM. Take `CC(C)OC(=O)CCc1cc(F)cc(-c2cc(C(C)N[C@H](C)c3cccc(Cl)c3)cc3ccccc23)c1` (mixture of isomers) [Example 153, Isopropyl 3-(3-(3-(1-(((R)-1-(3-chlorophenyl)ethyl)amino)ethyl)naphthalen-1-yl)-5-fluorophenyl) propanoate hydrochloride]: the EC50 was 0.02 to 0.05 µM. The figure for `COc1cccc([C@@H](C)NCc2cc(-c3cccc(C(C)(C)C(=O)O)c3)c3ccccc3c2)c1` [Example 112, (R)-2-(3-(3-(((1-(3-Methoxyphenyl)ethyl)amino)methyl)naphthalen-1-yl)phenyl)-2-methylpropanoic acid hydrochloride] is 0.05 to 0.4 µM.

As for `COc1cc([C@@H](C)NCc2cc(-c3ccc(C(=O)O)cc3)c3ccccc3c2)ccc1F` [Example 107, (R)-4-(3-(((1-(4-Fluoro-3-methoxyphenyl)ethyl)amino)methyl)naphthalen-1-yl)benzoic acid hydrochloride], the EC50 was 0.02 to 0.05 µM.

For the molecule `CCOc1cccc([C@@H](C)NCc2cc(-c3ccc(Cl)c(C(=O)O)c3)c3ccccc3c2)c1` [Example 100, (R)-2-Chloro-5-(3-(((1-(3-ethoxyphenyl)ethyl)amino)methyl)naphthalen-1-yl)benzoic acid hydrochloride], the concentration for a half-maximal effect (EC50) fell in the range of 0.02 to 0.05 µM. The figure for `CCC(N[C@H](C)c1cccc(OC)c1)c1cc(-c2cc(F)cc(CCC(=O)O)c2)c2ccccc2c1` (stereo partly drawn) [Example 148, 3-(3-Fluoro-5-(3-(1-(((R)-1-(3-methoxyphenyl)ethyl)amino)propyl)naphthalen-1-yl)phenyl)propanoic acid hydrochloride] is 0.05 to 0.4 µM.
